Target: T1, recombinant α-mannosidase (LAMAN) (Homo sapiens, UniProt O00754)
T1 construct: purchased Zymenex, Hillerod, DK
T1 sequence (O00754 50-1011): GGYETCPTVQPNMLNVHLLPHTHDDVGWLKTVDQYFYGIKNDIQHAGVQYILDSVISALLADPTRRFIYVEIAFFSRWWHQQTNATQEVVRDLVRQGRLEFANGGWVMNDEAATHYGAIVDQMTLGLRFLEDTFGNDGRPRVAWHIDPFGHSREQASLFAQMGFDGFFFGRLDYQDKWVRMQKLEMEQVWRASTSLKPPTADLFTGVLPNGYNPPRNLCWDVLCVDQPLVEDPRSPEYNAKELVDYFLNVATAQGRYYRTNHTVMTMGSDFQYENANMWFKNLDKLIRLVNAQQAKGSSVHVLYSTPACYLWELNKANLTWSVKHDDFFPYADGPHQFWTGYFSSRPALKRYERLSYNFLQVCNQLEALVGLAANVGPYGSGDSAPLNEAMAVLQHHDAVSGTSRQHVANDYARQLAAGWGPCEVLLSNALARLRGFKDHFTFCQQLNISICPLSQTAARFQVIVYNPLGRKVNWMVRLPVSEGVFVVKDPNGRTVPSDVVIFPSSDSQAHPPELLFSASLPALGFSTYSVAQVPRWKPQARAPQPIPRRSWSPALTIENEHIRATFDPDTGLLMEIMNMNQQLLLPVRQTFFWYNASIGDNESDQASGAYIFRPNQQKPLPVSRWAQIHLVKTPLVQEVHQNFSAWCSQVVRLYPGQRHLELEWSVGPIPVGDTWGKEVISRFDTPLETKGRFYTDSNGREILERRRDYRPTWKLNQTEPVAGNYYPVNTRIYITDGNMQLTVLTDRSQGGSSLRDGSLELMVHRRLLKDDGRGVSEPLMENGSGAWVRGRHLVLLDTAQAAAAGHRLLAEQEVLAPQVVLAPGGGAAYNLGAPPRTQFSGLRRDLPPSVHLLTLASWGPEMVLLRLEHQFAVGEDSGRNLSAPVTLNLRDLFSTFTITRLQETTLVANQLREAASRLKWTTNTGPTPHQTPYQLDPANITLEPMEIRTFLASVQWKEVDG
Experiment: peptide pulldown of recombinant LAMAN
Format: binding
Details: neutral pH
Method: FIG. 6: Characterization of a helical LIMP-2-derived peptide. […] B) In vitro peptide pulldown assay: helix 5 peptides were incubated with recombinant LAMAN and bovine serum albumin (BSA). INPUT and BOUND fractions were loaded onto SDS-PAGE and proteins visualized by coomassie staining (CBB). C) Densitometry of LAMAN and BSA protein bound to peptide, normalized to protein fraction bound to beads only (buffer; n=2-3). D) and E) Activity assay of recombinant (D) GC and (E) LAMAN incubated with different excess molarities (1×-10×) of helix 5 peptide (n=β-5) and LIMP-2 ectodomain (n=4). GC activities were normalized and statistical analyses compared to 0 input of BSA/helix 5 peptide. F) Peptide-pulldown of GC constructs overexpressed in N2a cells with subsequent Western blot analysis (α-hGC) utilizing helix 5 and the 3×D control peptide as a negative binding control. G) Densitometry of GC protein bound to peptides; each construct is normalized to buffer only. H) Live-cell lysosomal GC activity of H4 cells after uptake of helix 5 and 3×D TAT peptides. GC activity was measures every 30 minutes up to 3.5 hours. Cells were treated with DMSO or the “lysosomal inhibitor” bafilomycinA1. […] Lysosomal activity is calculated by subtracting the AUC of DMSO with the AUC of bafilomycinA1 treated samples (n=4). […] GC activity was measured from 16-74 hours and is shown in mU/mg (n=3). […]

Q: For “Biotin-Ttds-LREIIEAMLKAYQQKLFVTHTVDE [helix 5 peptide]”, which “interaction with recombinant α-mannosidase (LAMAN)” value is on record?
A: no interaction

From patent publication US10286038B2, “Lysosome membrane protein 2 (LIMP-2) based peptides and related uses” (Northwestern University, priority 2016, dated 2019)
